Test results from ChEMBL document CHEMBL3600384, “Highly potent artemisinin-derived dimers and trimers: Synthesis and evaluation of their antimalarial, antileukemia and antiviral activities” (Bioorg Med Chem, 2015).
Calls of active or inactive are those of the source. No cut-off for these calls is given here.

Key:
Plasmodium falciparum [1] = assay: Antimalarial activity against Plasmodium falciparum 3D7 infected in human erythrocytes assessed as parasite growth inhibition after 72 hrs by SYBR Green I assay; type: functional, organism-based; settings: 3D7, 72 h
Plasmodium falciparum [2] = assay: Antimalarial activity against Plasmodium falciparum NF54 infected in human erythrocytes after 48 hrs by [3H]hypoxanthine incorporation assay; type: functional, organism-based
CCRF-CEM [3] = assay: Cytotoxicity against human CCRF-CEM cells assessed as cell viability after 72 hrs by resazurin assay; type: functional, cell-based
[4] = Cytotoxicity against human CEM/ADR5000 cells assessed as cell viability after 72 hrs by resazurin assay; type: functional, cell-based; settings: ADR5000, 72 h
CCRF-CEM [5] = assay: Resistance index, ratio of IC50 for human CEM/ADR5000 cells to IC50 for human CCRF-CEM cells; type: functional
Human betaherpesvirus 5 = assay: Antiviral activity against Human cytomegalovirus AD169 expressing GFP infected in HFF assessed as inhibition of viral replication after 7 days; type: functional, organism-based
[6] = Stability of the compound in freezing/thawing condition; type: physicochemical
[7] = Stability of the compound up to 56 degC; type: physicochemical
HFF [8] = assay: Cytotoxicity against HFF up to 10 uM by light microscopic analysis; type: cell-based; settings: human
HFF [9] = assay: Cytotoxicity against HFF up to 10 uM by fluorescence microscopic analysis; type: cell-based; settings: human
[10] = Potency index, ratio of doxorubicin IC50 to compound IC50 for human CEM/ADR5000 cells; type: functional
ADR5000 = assay: Cytotoxicity against human CEM/ADR5000 cells assessed as cell viability at 400 uM after 72 hrs by resazurin assay; type: functional, cell-based
[11] = Human betaherpesvirus 5, AD169, 168 h, read-out: IC50

Row | SMILES | IC50 (Plasmodium falciparum [1]) [nM] | IC50 (CCRF-CEM [3]) [nM] | IC50 [4] [nM] | Ratio IC50 (CCRF-CEM [5]) | IC50 (Human betaherpesvirus 5; [11]) [nM] | further results
1 | C[C@H]1[C@@H](CC(CO)C[C@H]2O[C@@H]3O[C@@]4(C)CC[C@H]5[C@H](C)CC[C@@H]([C@H]2C)[C@@]35OO4)O[C@@H]2O[C@@]3(C)CC[C@H]4[C@H](C)CC[C@@H]1[C@@]24OO3 (stereo not given in full) | 1.1 | 20 | 50 | 2.5 | – | IC50 (Plasmodium falciparum [2]): 0.87 nM
2 | C[C@H]1[C@H](OC(=O)CCC(=O)NCC(O)CNC(=O)CCC(=O)O[C@@H]2O[C@@H]3O[C@@]4(C)CC[C@H]5[C@H](C)CC[C@@H]([C@H]2C)[C@@]35OO4)O[C@@H]2O[C@@]3(C)CC[C@H]4[C@H](C)CC[C@@H]1[C@@]24OO3 (stereo not given in full) | – | – | – | – | 2070 | –
3 | C[C@H]1[C@H](OC(=O)CCC(=O)OCC(C[C@H]2O[C@@H]3O[C@@]4(C)CC[C@H]5[C@H](C)CC[C@@H]([C@H]2C)[C@@]35OO4)C[C@H]2O[C@@H]3O[C@@]4(C)CC[C@H]5[C@H](C)CC[C@@H]([C@H]2C)[C@@]35OO4)O[C@@H]2O[C@@]3(C)CC[C@H]4[C@H](C)CC[C@@H]1[C@@]24OO3 | 12.8 | 2 | 200 | 100 | 40 | Stability [6]: Stable; Stability [7]: Stable; Activity (HFF [8]): Non-toxic; Activity (HFF [9]): Non-toxic; Ratio IC50 [10]: 3
4 | COc1cccc2c1C(=O)c1c(O)c3c(c(O)c1C2=O)C[C@@](O)(C(=O)CO)C[C@@H]3O[C@H]1C[C@H](N)[C@H](O)[C@H](C)O1 [DOXORUBICIN] | – | 3 | 1610 | 536.67 | – | –
5 | C[C@H]1[C@@H](CCCOC(=O)C[C@H]2O[C@@H]3O[C@@]4(C)CC[C@H]5[C@H](C)CC[C@@H]([C@H]2C)[C@@]35OO4)O[C@@H]2O[C@@]3(C)CC[C@H]4[C@H](C)CC[C@@H]1[C@@]24OO3 | 2.6 | 90 | 200 | 2.22 | 310 | Ratio IC50 [10]: 3
6 | C[C@@H]1CC[C@H]2[C@@H](C)C(=O)O[C@@H]3O[C@@]4(C)CC[C@@H]1[C@]32OO4 [ARTEMISININ] | – | – | – | 0.73 | > 10000 | –
7 | C[C@H]1[C@H](OC(=O)CCC(=O)O)O[C@@H]2O[C@@]3(C)CC[C@H]4[C@H](C)CC[C@@H]1[C@@]24OO3 [ARTESUNATE] | 9 | 70 | 190 | 2.71 | 3800 | –
8 | C[C@H]1[C@@H](O)O[C@@H]2O[C@@]3(C)CC[C@H]4[C@H](C)CC[C@@H]1[C@@]24OO3 [ARTENIMOL] | 2.5 | 90 | 270 | 3 | > 10000 | –
9 | C[C@H]1[C@@H](OCC(C[C@H]2O[C@@H]3O[C@@]4(C)CC[C@H]5[C@H](C)CC[C@@H]([C@H]2C)[C@@]35OO4)C[C@H]2O[C@@H]3O[C@@]4(C)CC[C@H]5[C@H](C)CC[C@@H]([C@H]2C)[C@@]35OO4)O[C@@H]2O[C@@]3(C)CC[C@H]4[C@H](C)CC[C@@H]1[C@@]24OO3 | 12.8 | 2 | 490 | 245 | – | IC50 (Human betaherpesvirus 5): ND(toxic); Activity (HFF [8]): Non-toxic; Activity (HFF [9]): Non-toxic; Ratio IC50 [10]: 3
10 | C[C@H]1[C@H](OC(=O)CCC(=O)O[C@@H]2O[C@@H]3O[C@@]4(C)CC[C@H]5[C@H](C)CC[C@@H]([C@H]2C)[C@@]35OO4)O[C@@H]2O[C@@]3(C)CC[C@H]4[C@H](C)CC[C@@H]1[C@@]24OO3 | 2.6 | 2750 | 2790 | 1.01 | 1040 | –
11 | Nc1nc2c(ncn2COC(CO)CO)c(=O)[nH]1 [GANCICLOVIR] | – | – | – | – | 2600 | –
12 | C[C@H]1[C@@H](CCCO)O[C@@H]2O[C@@]3(C)CC[C@H]4[C@H](C)CC[C@@H]1[C@@]24OO3 | 11.6 | 174000 | – | – | – | Activity (ADR5000): inactive
13 | C[C@H]1[C@H](OC(=O)CCC(=O)NCCCCCCCCNC(=O)CCC(=O)O[C@@H]2O[C@@H]3O[C@@]4(C)CC[C@H]5[C@H](C)CC[C@@H]([C@H]2C)[C@@]35OO4)O[C@@H]2O[C@@]3(C)CC[C@H]4[C@H](C)CC[C@@H]1[C@@]24OO3 | – | – | – | – | > 10000 | –
